Where a SMILES comes first, the peptide text is derived from it. [ ]: non-standard residue; d: D form. Cha = N[C@@H](CC1CCCCC1)C(=O)O; aThr = C[C@H](O)[C@H](N)C(=O)O; Chg = N[C@H](C(=O)O)C1CCCCC1; Tle = CC(C)(C)[C@H](N)C(=O)O; dDab = NCC[C@@H](N)C(=O)O; hSer = N[C@@H](CCO)C(=O)O; Orn = NCCC[C@H](N)C(=O)O; Dab = NCC[C@H](N)C(=O)O; Nva = CCC[C@H](N)C(=O)O
System: human red blood cells (hRBC)
Format: cell-based
Conditions: red cells of human, 1 h
Experimental: The peptides were tested for their hemolytic activity against human red blood cells (hRBC). Fresh hRBC were washed three times with phosphate buffered saline (PBS) and centrifuged for 10 min at 2000×g. Compounds (100 μg/ml) were incubated with 20% hRBC (v/v) for 1 h at 37° C. and shaking at 300 rpm. The final erythrocyte concentration was approximately 0.9×10^9 cells/ml. A value of 0% and 100% cell lyses, respectively, was determined by incubation of hRBC in the presence of PBS containing 0.001% acetic acid and 2.5% Triton X-100 in H2O, respectively. The samples were centrifuged, the supernatants were 8-fold diluted in PBS buffer and the optical densities (OD) were measured at 540 nm. The 100% lyses value (OD540H2O) gave an OD540 of approximately 0.5-1.0. Percent hemolysis was calculated as follows: (OD540peptide/OD540H2O)×100%.

SMILES	Hemolysis at 100 μg/ml [%]
CC[C@H](C)[C@@H]1NC(=O)[C@@H]2CCCN2C(=O)[C@H]2CCCN2C(=O)[C@H](CO)NC(=O)[C@H](C)NC(=O)[C@H](C(C)(C)C)NC(=O)[C@H](CCN)NC(=O)[C@H](Cc2c[nH]c3ccccc23)NC(=O)[C@H](CCN)NC(=O)[C@@H](CCN)NC(=O)[C@H](CCCN)NC(=O)[C@H](CCN)NC(=O)[C@H](Cc2ccc(O)cc2)NC(=O)[C@H](Cc2c[nH]cn2)NC1=O [compound 20, cyclo(-Ile-His-Tyr-Dab-Orn-^DDab-Dab-Trp-Dab-tBuGly-Ala-Ser-^DPro-Pro-)] (cyclo(IHY[Dab][Orn][dDab][Dab]W[Dab][Tle]AS[dP]P))	0
CC(C)C[C@@H]1NC(=O)[C@@H]2CCCN2C(=O)[C@H]2CCCN2C(=O)[C@H](CO)NC(=O)[C@H](Cc2ccc(O)cc2)NC(=O)[C@H](C(C)(C)C)NC(=O)[C@H](CCN)NC(=O)[C@H](Cc2c[nH]c3ccccc23)NC(=O)[C@H](CCN)NC(=O)[C@@H](CCN)NC(=O)[C@H](CCCN)NC(=O)[C@H](CCN)NC(=O)[C@H](Cc2ccc(O)cc2)NC(=O)[C@H](Cc2ccc(O)cc2)NC1=O [compound 38, cyclo(-Leu-Tyr-Tyr-Dab-Orn-^DDab-Dab-Trp-Dab-tBuGly-Tyr-Ser-^DPro-Pro-)] (cyclo(LYY[Dab][Orn][dDab][Dab]W[Dab][Tle]YS[dP]P))	0
CC(C)C[C@@H]1NC(=O)[C@@H]2CCCN2C(=O)[C@H]2CCCN2C(=O)[C@H](CO)NC(=O)[C@H](CO)NC(=O)[C@H](C(C)(C)C)NC(=O)[C@H](CCN)NC(=O)[C@H](Cc2c[nH]c3ccccc23)NC(=O)[C@H](CCN)NC(=O)[C@@H](CCN)NC(=O)[C@H](CCCN)NC(=O)[C@H](CCN)NC(=O)[C@H](Cc2ccc(O)cc2)NC(=O)[C@H](Cc2c[nH]cn2)NC1=O [compound 30, cyclo(-Leu-His-Tyr-Dab-Orn-^DDab-Dab-Trp-Dab-tBuGly-Ser-Ser-^DPro-Pro-)] (cyclo(LHY[Dab][Orn][dDab][Dab]W[Dab][Tle]SS[dP]P))	1
CC(C)C[C@@H]1NC(=O)[C@@H]2CCCN2C(=O)[C@H]2CCCN2C(=O)[C@H](CO)NC(=O)[C@H](C)NC(=O)[C@H](C(C)(C)C)NC(=O)[C@H](CCN)NC(=O)[C@H](Cc2c[nH]c3ccccc23)NC(=O)[C@H](CCN)NC(=O)[C@@H](CCN)NC(=O)[C@H](CCCN)NC(=O)[C@H](CCN)NC(=O)[C@H](Cc2ccc(O)cc2)NC(=O)[C@H](Cc2c[nH]cn2)NC1=O [compound 5, cyclo(-Leu-His-Tyr-Dab-Orn-^DDab-Dab-Trp-Dab-tBuGly-Ala-Ser-^DPro-Pro-)] (cyclo(LHY[Dab][Orn][dDab][Dab]W[Dab][Tle]AS[dP]P))	0
COc1ccc(C[C@@H]2NC(=O)[C@H](Cc3c[nH]cn3)NC(=O)[C@H](Cc3c[nH]c4ccccc34)NC(=O)[C@@H]3CCCN3C(=O)[C@H]3CCCN3C(=O)[C@H](CO)NC(=O)[C@H](C)NC(=O)[C@H](C(C)(C)C)NC(=O)[C@H](CCO)NC(=O)[C@H](Cc3c[nH]c4ccccc34)NC(=O)[C@H](CCN)NC(=O)[C@@H](CCN)NC(=O)[C@H](CCCN)NC(=O)[C@H](CCN)NC2=O)cc1 [Ex. 16, cyclo(-Trp-His-Tyr(Me)-Dab-Orn-^DDab-Dab-Trp-Hse-tBuGly-Ala-Ser-^DPro-Pro-)] (cyclo(WHY(Me)[Dab][Orn][dDab][Dab]W[hSer][Tle]AS[dP]P))	1
CC(C)C[C@@H]1NC(=O)[C@@H]2CCCN2C(=O)[C@H]2CCCN2C(=O)[C@H](CO)NC(=O)[C@H](C)NC(=O)[C@H](CC2CCCCC2)NC(=O)[C@H](CCN)NC(=O)[C@H](Cc2c[nH]c3ccccc23)NC(=O)[C@H](CCN)NC(=O)[C@@H](CCN)NC(=O)[C@H](CCCN)NC(=O)[C@H](CCN)NC(=O)[C@H](Cc2ccc(O)cc2)NC(=O)[C@H](Cc2c[nH]c3ccccc23)NC1=O [compound 26, cyclo(-Leu-Trp-Tyr-Dab-Orn-^DDab-Dab-Trp-Dab-Cha-Ala-Ser-^DPro-Pro-)] (cyclo(LWY[Dab][Orn][dDab][Dab]W[Dab][Cha]AS[dP]P))	1
CCC[C@@H]1NC(=O)[C@@H]2CCCN2C(=O)[C@H]2CCCN2C(=O)[C@H](CO)NC(=O)[C@H](C)NC(=O)[C@H](C(C)(C)C)NC(=O)[C@H](CCN)NC(=O)[C@H](Cc2c[nH]c3ccccc23)NC(=O)[C@H](CCN)NC(=O)[C@@H](CCN)NC(=O)[C@H](CCCN)NC(=O)[C@H](CCN)NC(=O)[C@H](Cc2ccc(O)cc2)NC(=O)[C@H](Cc2c[nH]cn2)NC1=O [compound 8, cyclo(-Nva-His-Tyr-Dab-Orn-^DDab-Dab-Trp-Dab-tBuGly-Ala-Ser-^DPro-Pro-)] (cyclo([Nva]HY[Dab][Orn][dDab][Dab]W[Dab][Tle]AS[dP]P))	1
CC(C)C[C@@H]1NC(=O)[C@@H]2CCCN2C(=O)[C@H]2CCCN2C(=O)[C@H](CO)NC(=O)[C@H](CO)NC(=O)[C@H](C2CCCCC2)NC(=O)[C@H](CCN)NC(=O)[C@H](Cc2c[nH]c3ccccc23)NC(=O)[C@H](CCN)NC(=O)[C@@H](CCN)NC(=O)[C@H](CCCN)NC(=O)[C@H](CCN)NC(=O)[C@H](C(C)(C)C)NC(=O)[C@H](Cc2c[nH]c3ccccc23)NC1=O [compound 36, cyclo(-Leu-Trp-tBuGly-Dab-Orn-^DDab-Dab-Trp-Dab-Chg-Ser-Ser-^DPro-Pro-)] (cyclo(LW[Tle][Dab][Orn][dDab][Dab]W[Dab][Chg]SS[dP]P))	1
CC[C@H](C)[C@@H]1NC(=O)[C@@H]2CCCN2C(=O)[C@H]2CCCN2C(=O)[C@H](CO)NC(=O)[C@H](C)NC(=O)[C@H](CC2CCCCC2)NC(=O)[C@H](CCN)NC(=O)[C@H](Cc2c[nH]c3ccccc23)NC(=O)[C@H](CCN)NC(=O)[C@@H](CCN)NC(=O)[C@H](CCCCN)NC(=O)[C@H](CCN)NC(=O)[C@H](C(C)(C)C)NC(=O)[C@H](Cc2c[nH]c3ccccc23)NC1=O [compound 35, cyclo(-Ile-Trp-tBuGly-Dab-Lys-^DDab-Dab-Trp-Dab-Cha-Ala-Ser-^DPro-Pro-)] (cyclo(IW[Tle][Dab]K[dDab][Dab]W[Dab][Cha]AS[dP]P))	1
CCC[C@@H]1NC(=O)[C@H](CCN)NC(=O)[C@H](Cc2c[nH]c3ccccc23)NC(=O)[C@H](CCN)NC(=O)[C@@H](CCN)NC(=O)[C@H](CCCN)NC(=O)[C@H](CCN)NC(=O)[C@H](CC2CCCCC2)NC(=O)[C@H](Cc2c[nH]cn2)NC(=O)[C@H](Cc2c[nH]c3ccccc23)NC(=O)[C@@H]2CCCN2C(=O)[C@H]2CCCN2C(=O)[C@H](CO)NC(=O)[C@H](C)NC1=O [compound 3, cyclo(-Trp-His-Cha-Dab-Orn-^DDab-Dab-Trp-Dab-Nva-Ala-Ser-^DPro-Pro-)] (cyclo(WH[Cha][Dab][Orn][dDab][Dab]W[Dab][Nva]AS[dP]P))	3
CC(C)C[C@@H]1NC(=O)[C@@H]2CCCN2C(=O)[C@H]2CCCN2C(=O)[C@H](CO)NC(=O)[C@H](C)NC(=O)[C@H](C2CCCCC2)NC(=O)[C@H](CCN)NC(=O)[C@H](Cc2c[nH]c3ccccc23)NC(=O)[C@H](CCN)NC(=O)[C@@H](CCN)NC(=O)[C@H](CCCN)NC(=O)[C@H](CCN)NC(=O)[C@H](C(C)(C)C)NC(=O)[C@H](Cc2c[nH]c3ccccc23)NC1=O [compound 34, cyclo(-Leu-Trp-tBuGly-Dab-Orn-^DDab-Dab-Trp-Dab-Chg-Ala-Ser-^DPro-Pro-)] (cyclo(LW[Tle][Dab][Orn][dDab][Dab]W[Dab][Chg]AS[dP]P))	1
C[C@@H]1NC(=O)[C@H](C(C)(C)C)NC(=O)[C@H](CCN)NC(=O)[C@H](Cc2c[nH]c3ccccc23)NC(=O)[C@H](CCN)NC(=O)[C@H](CCN)NC(=O)[C@H](CCCN)NC(=O)[C@H](CCN)NC(=O)[C@H](CC2CCCCC2)NC(=O)[C@H](Cc2c[nH]cn2)NC(=O)[C@H](Cc2c[nH]c3ccccc23)NC(=O)[C@@H]2CCCN2C(=O)[C@H]2CCCN2C(=O)[C@H](CO)NC1=O [compound 19, cyclo(-Trp-His-Cha-Dab-Orn-Dab-Dab-Trp-Dab-tBuGly-Ala-Ser-^DPro-Pro-)] (cyclo(WH[Cha][Dab][Orn][Dab][Dab]W[Dab][Tle]AS[dP]P))	0
CC[C@H](C)[C@@H]1NC(=O)[C@H](CCN)NC(=O)[C@H](Cc2c[nH]c3ccccc23)NC(=O)[C@H](CCN)NC(=O)[C@@H](CCN)NC(=O)[C@H](CCCN)NC(=O)[C@H](CCN)NC(=O)[C@H](Cc2ccc(O)cc2)NC(=O)[C@H](Cc2c[nH]cn2)NC(=O)[C@H]([C@@H](C)CC)NC(=O)[C@@H]2CCCN2C(=O)[C@H]2CCCN2C(=O)[C@H](CO)NC(=O)[C@H](C)NC1=O [compound 21, cyclo(-Ile-His-Tyr-Dab-Orn-^DDab-Dab-Trp-Dab-Ile-Ala-Ser-^DPro-Pro-)] (cyclo(IHY[Dab][Orn][dDab][Dab]W[Dab]IAS[dP]P))	1
CC(C)C[C@@H]1NC(=O)[C@@H]2CCCN2C(=O)[C@H]2CCCN2C(=O)[C@H]([C@H](C)O)NC(=O)[C@H](C)NC(=O)[C@H](C(C)(C)C)NC(=O)[C@H](CCN)NC(=O)[C@H](Cc2c[nH]c3ccccc23)NC(=O)[C@H](CCN)NC(=O)[C@@H](CCN)NC(=O)[C@H](CCCN)NC(=O)[C@H](CCN)NC(=O)[C@H](CC2CCCCC2)NC(=O)[C@H](Cc2c[nH]cn2)NC1=O [Ex. 17, cyclo(-Leu-His-Cha-Dab-Orn-^DDab-Dab-Trp-Dab-tBuGly-Ala-alloThr-^DPro-Pro-)] (cyclo(LH[Cha][Dab][Orn][dDab][Dab]W[Dab][Tle]A[aThr][dP]P))	5
C[C@@H]1NC(=O)[C@H](C(C)(C)C)NC(=O)[C@H](CCN)NC(=O)[C@H](Cc2c[nH]c3ccccc23)NC(=O)[C@H](CCN)NC(=O)[C@@H](CCN)NC(=O)[C@H](CCCN)NC(=O)[C@H](CCN)NC(=O)[C@H](Cc2ccc(O)cc2)NC(=O)[C@H](Cc2c[nH]cn2)NC(=O)[C@H](Cc2c[nH]c3ccccc23)NC(=O)[C@@H]2CCCN2C(=O)[C@H]2CCCN2C(=O)[C@H](CO)NC1=O [compound 2, cyclo(-Trp-His-Tyr-Dab-Orn-^DDab-Dab-Trp-Dab-tBuGly-Ala-Ser-^DPro-Pro-)] (cyclo(WHY[Dab][Orn][dDab][Dab]W[Dab][Tle]AS[dP]P))	1

Source: patent US10370412B2, “Beta-hairpin peptidomimetics” (Polyphor AG, priority 2013, dated 2019)
